Source: patent US20230372273A1, “IONIC LIQUID COMPOSITIONS FOR SKIN DISEASES AND CONDITIONS” (CAGE BIO, INC., priority 2020, published 2023)

What was measured:
[1] = molecular target: T1, Recombinant human KLK5 (Homo sapiens, UniProt Q9Y337); assay: hKLK5 enzymatic assay; assay type: biochemical; conditions: substrate S-2288, OD 405 nm, 37° C.; read-out: IC50 against hKLK5
T1 construct: purchased Speed Biosystems LLC YS1485
T1 sequence (Q9Y337 23-293): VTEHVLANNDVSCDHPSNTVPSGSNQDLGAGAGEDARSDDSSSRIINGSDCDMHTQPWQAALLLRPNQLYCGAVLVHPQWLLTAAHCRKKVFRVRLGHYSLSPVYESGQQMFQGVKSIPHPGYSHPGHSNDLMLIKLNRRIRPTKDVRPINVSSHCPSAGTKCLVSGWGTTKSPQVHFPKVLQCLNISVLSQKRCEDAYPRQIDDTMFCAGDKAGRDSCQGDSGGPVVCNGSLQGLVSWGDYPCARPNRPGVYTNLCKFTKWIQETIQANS
Description: hKLK5 Enzymatic Assay. Test compound CAGE1:2 (87.07% w/v) was diluted to 0.99 mM and control compound Aprotinin was prepared at 6 μM in di-water. A 2-fold serial dilution was then performed in di-water to generate 10 concentrations for CAGE1:2 (87.07% w/v) and 8 concentrations for Aprotinin which were 2× of the final concentrations in the reaction. Recombinant human KLK5 was purchased from Speed Biosystems LLC (Catalog No. YS1485, Lot No. 0330517, 17.2 μM). The substrate S-2288 was purchased from Diapharma Group, Inc (Catalog No. S820852, Lot No. N0889942).
The assay was carried out in 384-well clear bottom plate coated with 0.1% Tween 20 at 4° C. overnight and washed twice with di-water before usage. 50 μL 2× compound in water was mixed with 25 μL 4× hKLK5 enzyme (120 nM) prepared in 2× reaction buffer (100 mM Tris, pH 8.0, 200 mM NaCl, 0.2% PEG, 0.01% Tween 20, 2 mM EDTA). The enzymatic reaction was initiated by the addition of 25 μL 4× substrate S-2288 (2 mM) in 2× reaction buffer to all wells. OD 405 nm was measured every 30 seconds by SpetraMax 384 Plus at 37° C. for 1 hour.

[2] = Human cadaver skin permeation (Franz cells); assay type: in vitro ADME
Description: Human cadaver skin permeation evaluation. Dermatomed full thickness human cadaver skin samples, 250-350 μm, were mounted onto static Franz cells. […] Phosphate buffered saline (PBS), pH 7.4 was used as the receptor medium. CGB400 gel was applied to the stratum corneum side of the skin samples at a dose of 15 μL/cm^2 ( 15 mg/cm^2). The cells were kept in a chamber at 37 C for a period of 24 h. […] in the receptor chamber ensured that the receptor media was well mixed during this time. The receptor media was sampled at 4, 7, and 24 hours to quantify the amount of choline and geranic acid permeation. After 24 hours, the skin surface was washed before removing the stratum corneum (SC) by tape stripping. […] Following SC removal, the epidermis was separated from the dermis using a surgical sterile scalpel and the dermis was cut into pieces. Each layer was collected separately in glass vials containing 2 mL of 50:50 water:methanol mixture and was left to shake overnight to extract the choline and geranic acid. The amount of choline and geranic acid was measured using LC-MS/MS in the wash, epidermis, dermis, and the receptor medium.

[3] = test system: Propionibacterium acnes clinical isolates
[4] = cited from earlier work

| Compound | IC50 [1] [mM] | applied dose penetrated into the dermis [2] | estimated epidermal CAGE concentration [2] [mM] | molar ratio of choline to geranic acid in the epidermis [2] | effective concentration for antibacterial activity [3] [mM] | Minimum Inhibitory Concentration (MIC) ([3]; P. acnes isolates, 48 hours) | Log P [4] |
| --- | --- | --- | --- | --- | --- | --- | --- |
| Choline geranate [CAGE1:2] | ~30 | About 9.5% | ~76 | 1.18 | < 0.45 | 0.025-0.2 % of neat CAGE1:2 |  |
| CC(C)=CCC/C(C)=C/C(=O)O [geranic acid, 3,7-dimethyl-2,6-octadienoic acid] |  |  |  |  |  |  | 2.8 |
